Consider 14 molecules from patent US20040091479A1, “T-cell epitope of the papillomavirus l1 and e7 protein and use thereof in diagnostics and therapy” (priority 2000, published 2004).

Data set [1] relates to HPV18 CVLP-stimulated human T cells. In words: Restimulating HPV18 CVLP-stimulated T cells with BLCL presenting Q38, Q39, Q46 or Q47 (example 13). The format is cell-based. The following applies: conclusion from FIG. 12 top right. The method, then:
In analogy with example 6, human T cells (4×10^5) derived from a non-HLA-typed blood donor were stimulated with HPV18L1ΔCDIE71-53DI CVLPs and HPV18L1ΔCDIE71-60DI CVLPs and harvested.
The T cells were then restimulated, at 37° C. and in 100 μl of medium, with in each case 1 μg of peptide Q38, Q39, Q46 or Q47/ml and 10^5 antigen-presenting cells (donor-identical BLCL) in the presence of 10 IU of IL2/ml. Cells which were only incubated with buffer served as the negative control while cells which were incubated with the HPV18 L1 peptide pool or the E7 peptide pool served as positive controls.
(§1) 1 μl of monensin was added after an hour. The cells were then incubated at 37° C. for a further 5 hours. After that, the cells were fixed and permeabilized and stained with α-human CD8/APC, with α-human CD4/PerCP and with α-human IFNγ/FITC. The labeling of the cells was examined in a FACScan Calibur and the results of the measurements were analyzed using Cellquest software.

Data set [2] concerns CVLP-stimulated human CD4-positive T cells. Nature of the data set: Restimulating HPV18 CVLP-stimulated T cells with BLCL presenting HPV18 peptide pools (example 6). The format is cell-based. Particulars: peptide common to two reactive HPV18 pools; CD4/IFNγ. The method, then:
Human T cells (4×10^5) from a non-HLA-typed blood donor were stimulated for 1 week with HPV18 L1ΔCDIE71-53DI CVLPs and HPV18 L1ΔACDIE71-60DI CVLPS, 800 U of human GM-CSF/ml and 500 U of human IL4/ml and also, for a further 5 weeks, with HPV18 L1ΔCDIE71-53DI CVLPs and HPV18 L1ΔCDIE71-6ODI CVLPs at 37° C., with the weekly addition of 1 μg of the CVLPs mixLure (ratio of the two constructs 1:1)/ml and 10^5 antigen-presenting cells (irradiated PMBC), and harvested.
The 20 mer peptides Q1 to 52 were assembled into peptide pools A to H and 1 to 7, respectively, in accordance with the matrix
The T cells were then restimulated, at 37° C. and in 100 μl of medium, with the peptide pools and 10^5 antigen-presenting cells (donor-identical BLCL) in the presence of 10 IU of IL2/ml. The quantities of the peptide pools which were used in this connection were such that. 1 μg/ml was added in the case of each individual peptide.
Cells which were only incubated with buffer served as the negative control while cells incubated with the HPV18 L1 peptide pool and the HPV18 E7 peptide pool, respectively, served as positive controls.
1 μl of monensin was added after an hour. The cells were then incubated at 37° C. for a further 5 hours. After that, the cells were fixed and permeabilized and stained with α-human CD8/APC, with α-human CD4/PerCP and with α-human IFNγ/FITC. The labeling of the cells was analyzed in a FACScan Calibur and the results of the measurements were analyzed using Cellquest software.

Data set [3] concerns CVLP-stimulated CD8-positive T cells. Nature of the data set: Restimulating HPV16 CVLP-stimulated T cells with BLCL presenting HPV16 peptide pools (example 10). The format is cell-based, human. Particulars: peptide common to two reactive HPV16 pools. The method, then:
(§2) In analogy with example 6, human T cells derived from a non-HLA-typed blood donor were stimulated with HPV16L1ΔC*E71-55 CVLPs and harvested.
(§3) The T cells were then restimulated, at 37° C. and in 100 μl of medium, with the peptide pools from example 7 and 10^5 antigen-presenting cells (donor-identical BLCL) in the presence of 10 IU of IL2/ml. Use was made, in this connection, of quantities of the peptide pools which was such that 1 μg/ml was added in the case of each individual peptide. Cells which were only incubated with buffer served as the negative control while cells which were incubated with HPV16 L1 peptide pool served as positive controls.
as §1

For data set [4], the system named is HPV18 L1 peptide pool-stimulated CD8-positive T cells. In words: Restimulating HPV18 L1 peptide-stimulated T cells with Q9-presenting BLCL (example 8). The format is cell-based, human. As to the method:
In analogy with example 3, human T cells (4×10^5) derived from an HLA A24-positive donor were stimulated for 3 weeks with the HPV18 L1 peptide pool, at 37° C., with the weekly addition of 1 μg of each individual peptide/ml and 10^5 antigen-presenting cells (irradiated PMBC), and harvested.
The cells were then restimulated, at 37° C. in 100 μl of medium, with 10 μg of the HPV18 L1 peptide Q9/ml and 10^5 antigen-presenting cells (donor-identical BLCL) in the presence of 10 IU of IL2/ml. Cells which were only incubated with buffer served as the negative control.
1 μl of monensin (300 μM) was added after an hour. The cells were then incubated at 37° C. for a further 5 hours. After that, the cells were then fixed and permeabilized and stained with α-human CD8/APC, with α-human CD4/PerCP and with α-human IFNγ/FITC. The labeling of the cells was examined in a FACScan Calibur and the results of the measurements were analyzed using Cellquest software.

For data set [5], the system named is peptide-stimulated murine CD8-positive T cells. Nature of the data set: Restimulating HPV18 peptide-stimulated murine T cells with peptide-presenting LKK cells (IFNγ FACScan). The format is cell-based, C3H mice. The following applies: for proportion of CD8-positive T cells reactive on the basis of IFNγ expression: 1 μg peptide/ml, LKK cells, T cells of HPV18 CVLP-inoculated C3H mice, FIG. 3, 4; for T cell epitope assignment: conclusion from FIG. 3, 4. The method, then: Murine T cells (4×10^5) derived from C3H mice inoculated with HPV18 L1ΔCDIE71-53DI CVLPs and HPV18 L1ΔCDIE71-6ODI CVLPs were stimulated for 5 weeks with HPV18 L1 or E7 peptide pools at 37° C., with the weekly addition of 1 μg of each individual peptide/ml and 10^5 antigen-presenting cells (irradiated splenocytes), and harvested. The cells were then restimulated, at 37° C. and in 100 μl of medium, with 1 μg of the peptides given on the X axis in FIG. 3/ml and 10^5 antigen-presenting cells (LKK) in the presence of 10 IU of IL2/ml. Cells which were only incubated with buffer served as the negative control.
1 μl of monensin (300 μm) was added after an hour. The cells were incubated at 37° C. for a further 5 hours. The cells were then fixed and permeabilized and stained with α-mouse CD8/PE, with α-mouse CD4/cychrome and with α-mouse interferony/FITC. The labeling of the cells was analyzed in a FACScan Calibur and the results of the measurement were analyzed using Cellquest software.

Another data set relates to RMA cells. Nature of the data set: 51Cr release: lysing HPV18 peptide-loaded RMA cells (example 17). The class given is cell-based, murine. Particulars: for T cell epitope assignment: conclusion from FIG. 16 upper part; for specific lysis of target cells (51Cr release): peptide-loaded RMA cells, effector:target 20, FIG. 16 upper part. As to the method:
In analogy with example 4, RMA or LKK cells were radioactively labeled with ^51Cr and incubated with the peptides (Q43 and Q44 in the upper part of FIG. 16 and Q49 in the lower part of FIG. 16) which are plotted on the X axis. Cells without peptide served as negative controls. T cells which had previously been stimulated with the peptide pool were then added.
The lysis of the RMA cells or LKK cells by the T cells was measured by the release of the ^51Cr and calculated as described in example 4.

For data set [6], the system named is CVLP-stimulated T cells (CD4-positive). Nature of the data set: Restimulating HPV16 CVLP-stimulated T cells with BLCL presenting pools or P39 (example 9; IFNγ and IL4). The format is cell-based, human. The following applies: for T cell epitope assignment (TH2): peptide common to two reactive HPV16 pools, CD4/IL4. As to the method: as §2, §3, §1
In another data set the test system is human T cells. Nature of the data set: Summary of examples 3 to 18: epitopes recognized by human T cells. The format is cell-based. The following applies: Table 3, HPV16 peptides, species human; TC cytotoxic, TH T helper.
The subject of data set [7] is CVLP-stimulated CD8-positive T cells. Nature of the data set: Restimulating HPV16 CVLP-stimulated T cells with BLCL presenting HPV16 peptide pools (example 14). The format is cell-based, human. The following applies: peptide common to two reactive HPV16 pools; CD8/IFNγ. As to the method:
as §2
The T cells were then restimulated, at 37° C. and in 100 μl of medium, with the peptide pools from example 7 and 10^5 antigen-presenting cells (donor-identical BLCL) in the presence of 10 IU of IL2/ml. Use was made, in this connection, of quantities of the peptide pools which were such that 1 μg/ml was added in the case of each individual peptide. Cells which were only incubated with buffer served as the negative control, while cells which were incubated with the HPV16 L1 or E7 peptide pool served as positive controls.
as §1

Where a SMILES comes first, the peptide text is derived from it.

For `CC[C@H](C)[C@H](NC(=O)[C@H](C)NC(=O)[C@@H](NC(=O)[C@H](CO)NC(=O)[C@H](CCC(N)=O)NC(=O)[C@@H](NC(=O)[C@H](Cc1ccccc1)NC(=O)[C@H](CCCNC(=N)N)NC(=O)[C@@H](N)Cc1ccc(O)cc1)C(C)C)C(C)C)C(=O)N[C@H](C(=O)N[C@@H](CS)C(=O)N[C@@H](CCC(N)=O)C(=O)N[C@@H](CCCCN)C(=O)N[C@@H](CC(=O)O)C(=O)N[C@@H](C)C(=O)N[C@@H](C)C(=O)N1CCC[C@H]1C(=O)N[C@@H](C)C(=O)N[C@@H](CCC(=O)O)C(=O)N[C@@H](CC(N)=O)C(=O)O)[C@@H](C)O` [Q39], in data set [1], the “T cell epitope assignment (cytotoxic)” value is reported as “contain cytotoxic T cell epitopes”.

Take `CC[C@H](C)[C@H](NC(=O)[C@H](CCC(=O)O)NC(=O)[C@H](CC(=O)O)NC(=O)[C@H](CC(N)=O)NC(=O)[C@H](CCC(=O)O)NC(=O)[C@H](CCC(=O)O)NC(=O)[C@H](CCC(=O)O)NC(=O)[C@@H](N)CO)C(=O)N[C@@H](CC(=O)O)C(=O)NCC(=O)N[C@H](C(=O)N[C@@H](CC(N)=O)C(=O)N[C@@H](Cc1c[nH]cn1)C(=O)N[C@@H](CCC(N)=O)C(=O)N[C@@H](Cc1c[nH]cn1)C(=O)N[C@@H](CC(C)C)C(=O)N1CCC[C@H]1C(=O)N[C@@H](C)C(=O)N[C@@H](CCCNC(=N)N)C(=O)N[C@@H](CCCNC(=N)N)C(=O)O)C(C)C` [Q47] (H-SEEENDEIDGVNHQHLPARR-OH; N-terminus and C-terminus assumed): the “T cell epitope assignment (cytotoxic)” value in [1] is given as “contain cytotoxic T cell epitopes”.

For “GGNKQDIPKVSAYQYRVFRV [Q6, HPV18 L1 56-75]”, in data set [2], the “T cell epitope assignment” value is “contains a T helper epitope”.

Take GLQYRVFRIHLPDPNKFGFP [P7]: in data set [3], the “T cell epitope assignment” value is reported as “contain a cytotoxic T cell epitope”.

As to “IYNPETQRL [HPV18 L1 90-98, contained in peptide Q9]”, the “T cell epitope assignment” value in [4] (9mer within Q9, deduced from Q9 result and HLA A24 prediction) was “HLA A24-restricted cytotoxic T cell epitope”.

Consider “MALWRPSDNTVYLPPPSVAR [Q1, HPV18 L1 1-20]”, for which, in data set [2], the “T cell epitope assignment” value was “contain T helper epitopes”.

Turning to “MHGPKATLQDIVLHLEPQNE [Q44, HPV18 E7 1-20]”, in data set [5], the “proportion of CD8-positive T cells reactive on the basis of IFNγ expression” value (“proportion … of IFNγ expression” below) is recorded as “brought about a restimulation” and the “T cell epitope assignment” value is listed as “contain H2k-restricted cytotoxic T cell epitopes”. In the data set on RMA cells, the “T cell epitope assignment” value is recorded as “H2b-restricted cytotoxic T cell epitopes” and the “specific lysis of target cells (51Cr release)” value is recorded as “able to efficiently lyse”.

As for “PPPGGTLEDTYRFVTSQAIA [P38, HPV16 L1 408-427]”, the “T cell epitope assignment (TH2)” value in data set [6] is given as “contains a TH2 epitope”. Besides, the Epitope type entry in the data set on human T cells is recorded as “TH2”.

Turning to “PYDKLKFWNVDLKEKFSLDL [Q41, HPV18 L1 441-460]”, the “proportion … of IFNγ expression” value in data set [5] is “brought about a restimulation”. Besides, the “T cell epitope assignment” value in data set [5] was “contain H2k-restricted cytotoxic T cell epitopes”; in data set [2], “contain T helper epitopes”.

On to “RFVTSQAIACQKHTPPAPKE [P39, HPV16 L1 419-438]”, for which the “T cell epitope assignment (TH1)” value in data set [6] (CD4-positive and IFNγ-positive, pools G and 5 and P39 alone) is reported as “contains a T helper epitope”. In addition, the “proportion of CD4-positive and IFNγ-positive cells (TH1)” value in data set [6] (HPV16 pools or P39, donor-identical BLCL, FIG. 8 top) is recorded as “very high”. Also, the “T cell epitope assignment (TH2)” value in data set [6] is “contains a TH2 epitope”. Moreover, the Epitope type entry with human T cells is “TH1, TH2”.

As to “SIYNPETQRLVWACAGVEIG [Q9, HPV18 L1 89-108]”, the “proportion … of IFNγ expression” value in data set [4] (10 μg Q9/ml, donor-identical BLCL, HLA A24-positive donor, FIG. 7) was “brought about a restimulation”. Further, in [4] (conclusion from FIG. 7), the “T cell epitope assignment” value is given as “contains an HLA A24-restricted cytotoxic T cell epitope”.

Regarding “VGHPYFPIKKPNNNKILVPK [P5, HPV16 L1 45-64]”, the “T cell epitope assignment” value in data set [3] and in data set [7] was “contain a cytotoxic T cell epitope” throughout.

Turning to “YLPPVPVSKVVSTDEYVART [P2, HPV16 L1 12-31]”, the “T cell epitope assignment” value in data set [3] is “contain a cytotoxic T cell epitope”.

For the molecule “YPLGRKFLVQAGMHGPKATL [Q43, HPV18 L1 463-474 and E7 1-8]”, in data set [5], the “proportion … of IFNγ expression” value is on record as “brought about a restimulation” and the “T cell epitope assignment” value is reported as “contain H2k-restricted cytotoxic T cell epitopes”. Also, in the data set with RMA cells, the “T cell epitope assignment” value is listed as “H2b-restricted cytotoxic T cell epitopes” and the “specific lysis of target cells (51Cr release)” value is “able to efficiently lyse”.
